Experimental data as given in patent US6743913B2, “Pyrrolothiazine and pyrrolothiazepine compounds having serotonin-2 receptor antagonistic and α-1-blocking action” (Daiichi Suntory Pharma Co., Ltd., priority 1997, dated 2004).

Legend:
α1 receptors = experiment: Anti-α1 action: norepinephrine-induced tonic contraction of isolated thoracic aorta; details: tonic contraction by 10^−5 M norepinephrine taken as 100%, guinea pig thoracic aorta
Method: The thoracic aorta of each Hartley male guinea pig (body weight: 300-500 g) was excised. A preparation cut in a helical form was suspended under 1 g load in a Magnus cylinder filled with the Tyrode solution which had been aerated with a gas mixture of 95% O2 and 5% CO2 and maintained at 37° C. Using an isometric transducer (“TB-612J”, manufactured by Nihon Kohden Corporation) and a pressure preamplifier (“AP-620G”, manufactured by Nihon Kohden Corporation), variations in tension were measured. The isometric tensions were recorded on a thermal pen-writing recorder (“WT-647G”, manufactured by Nihon Kohden Corporation). Taking the tonic contraction induced by 10^−5 M norepinephrine (NE) as 100%, the percent contractions upon addition of each test drug at 10^−8 M and 10^−7 M were determined and recorded as α1 action.

serotonin-2 receptors = experiment: Anti-serotonin (5-HT) action: 5-HT-induced contraction of isolated superior mesenteric artery; details: contraction by 10^−5 M 5-HT taken as 100%, guinea pig superior mesenteric artery
Method: (2) Anti-serotonin (5-HT) Action
A preparation cut in a helical form was suspended under resting tension of 0.3 g in a Magnus cylinder filled with the Tyrode solution which had been aerated with a gas mixture of 95% O2 and 5% CO2 and maintained at 37° C. Using an isometric transducer (“UL-10”, manufactured by SHINKOH K.K.) and a pressure preamplifier (“DSA-605A”, manufactured by SHINKOH K.K.), variations in tension were measured. The isometric tensions were recorded on a pen-writing recorder (“VP-6537A”, manufactured by NATIONAL K.K.). Taking the contraction induced by 10^−5 M serotonin (5-HT) as 100%, the percent contractions by 10^−5 M 5-HT in the presence of each test drug at 10^−7 M and 10^−6 M were determined as anti-5-HT action.

Row | Structure (SMILES) | Anti α1 action (% of Control) (α1 receptors; test drug 10^−7 M) | Anti α1 action (% of Control) (α1 receptors; test drug 10^−8 M) | Anti 5-HT action (% of Control) (serotonin-2 receptors; test drug 10^−6 M) | Anti 5-HT action (% of Control) (serotonin-2 receptors; test drug 10^−7 M)
1 | CN1CCC(=NO)c2c(ccn2CCCCN2CCC(C(=O)c3ccc(F)cc3)CC2)S1(=O)=O [Compound 29, 6-[4-[4-(4-fluorobenzoyl)piperidino]-butyl]-5-hydroxyimino-2-methyl-3,4,5,6-tetrahydro-2H-pyrrolo[2,3-f][1,2]thiazepine 1,1-dioxide] | 33.4 % of Control | 83.1 % of Control | 32.5 % of Control | 79.0 % of Control
2 | CN1CC(=NO)c2c(ccn2CCCCN2CCC(C(=O)c3ccc(F)cc3)CC2)S1(=O)=O [Compound 28, 5-[4-[4-(4-fluorobenzoyl)piperidino]-butyl]-4-hydroxyimino-2-methyl-2,3,4,5-tetrahydropyrrolo[2,3-e][1,2]thiazine 1,1-dioxide] | 45.8 % of Control | 80.0 % of Control | 30.2 % of Control | 73.5 % of Control
3 | CN1CC(=O)c2c(ccn2CCCCN2CCC(C(=O)c3ccc(F)cc3)CC2)S1(=O)=O [Compound 22, 5-[4-[4-(4-fluorobenzoyl)piperidino]butyl]-2-methyl-2,3,4,5-tetrahydropyrrolo[2,3-e][1,2]thiazin-4-one 1,1-dioxide] | 43.2 % of Control | 66.6 % of Control | 41.1 % of Control | 80.4 % of Control
